Results on three molecules are retold here after ChEMBL document CHEMBL5126631, “Chemo- and Site-Selective Lysine Modification of Peptides and Proteins under Native Conditions Using the Water-Soluble Zolinium” (J Med Chem, 2022).

Data set [1] in a line: Drug localization in mitochondria of human HepG2 cells by measuring quinolylated lysine residues at proteins at 20 uM measured after 24 hrs by nano LC/MS/MS analysis. The data set is classed as ADME. The note with it: hepg2, 24 h.
Data set [2] can be described thus: Drug localization in cytosol of human HepG2 cells by measuring quinolylated lysine residues at proteins at 20 uM measured after 24 hrs by nano LC/MS/MS analysis. The data set is classed as ADME, subcellular.
The nature of data set [3]: Drug localization in nucleus of human HepG2 cells by measuring quinolylated lysine residues at proteins at 20 uM measured after 24 hrs by nano LC/MS/MS analysis. The data set is classed as ADME, cell-based. The note with it: hepg2, 24 h.
The nature of data set [4]: Drug localization in endosome of human HepG2 cells by measuring quinolylated lysine residues at proteins at 20 uM measured after 24 hrs by nano LC/MS/MS analysis. The data set is classed as ADME, cell-based. The note with it: hepg2, 24 h.
Data set [5] is described as follows: Drug localization in golgi apparatus of human HepG2 cells by measuring quinolylated lysine residues at proteins at 20 uM measured after 24 hrs by nano LC/MS/MS analysis. Format: ADME, cell-based. The note with it: hepg2, 24 h.
Data set [6] can be described thus: Drug localization in cytoplasm of human HepG2 cells by measuring quinolylated lysine residues at proteins at 20 uM measured after 24 hrs by nano LC/MS/MS analysis. To be noted: hepg2, 24 h. The data set is classed as ADME, cell-based.
The nature of data set [7]: Drug localization in cell membrane of human HepG2 cells by measuring quinolylated lysine residues at proteins at 20 uM measured after 24 hrs by nano LC/MS/MS analysis. Format: ADME, cell-based. The note with it: hepg2, 24 h.
Data set [8] in a line: Drug localization in cytoskeleton of human HepG2 cells by measuring quinolylated lysine residues at proteins at 20 uM measured after 24 hrs by nano LC/MS/MS analysis. Format: ADME, cell-based. The note with it: hepg2, 24 h.
For data set [9], the target named is T1, Replicase polyprotein 1ab (Severe acute respiratory syndrome coronavirus 2, UniProt P0DTD1). The data set is described as follows: Inhibition of SARS-CoV-2 3CLpro using Dabcyl-KNSTLQSGLRKE-Edans fluorogenic peptide as substrate by FRET assay.
Data set [10] is described as follows: Drug localization in endoplasmic reticulum of human HepG2 cells by measuring quinolylated lysine residues at proteins at 20 uM measured after 24 hrs by nano LC/MS/MS analysis. The data set is classed as ADME, cell-based. To be noted: hepg2, 24 h.
Data set [11] addresses T1, Replicase polyprotein 1ab. The data set is described as follows: Inhibition of SARS-CoV-2 3CLpro preincubated for 60 mins followed by addition of Dabcyl-KNSTLQSGLRKE-Edans fluorogenic peptide as substrate by FRET assay.
Another data set concerns HepG2. The data set is described as follows: Cytotoxicity against human HepG2 cells assessed as inhibition of cell viability at 25 uM measured after 48 hrs by CCK-8 assay. Format: functional. (In general: Tetrazolium dyes change colour on reduction, which living cells bring about.)

One may read the pIC50 as the negative decadic logarithm of the IC50, by convention in mol/L. Read a low pIC50 as a high IC50.

pIC50: −log10 of the molar value.

In the case of `C#Cc1ccc2c(ccc3[n+]2C(OC)C[Se]3)c1` (stereo unspecified), the Drug uptake is recorded as 2.3% in data set [1]; 19.16% in data set [2]; 22.61% in data set [3]; 2.3% in data set [4]; 1.53% in data set [5]; 15.71% in [6]. Further, the values for the Drug uptake in data set [7], in data set [8] and in data set [10] were 11.88%, 11.11% and 1.53%, respectively. Also, the pIC50 in data set [9] is 4.12; in data set [11], 5.44.
As for `COC1CSc2ccc3cc(C(=O)NCCCCCN4C(=O)c5cccc6c(N(C)C)ccc(c56)C4=O)ccc3[n+]21.Cl.[Cl-]` (stereo unspecified), in the data set with HepG2, the Activity came out at 90%.
In the case of `C#Cc1ccc2c(ccc3[n+]2C(OC)CS3)c1` (stereo unspecified), the Drug uptake stood at 2.63% in [1]; 17.54% in [2]; 27.19% in data set [3]; 3.51% in data set [4]; 5.26% in [5]; 14.04% in [6]. In addition, the Drug uptake in data set [7] came to 8.77%; in data set [8], 7.02%; in [10], 4.39%.
